Test results published in patent US6638943B2 (The University of Tennessee Research Foundation, priority 2001, dated 2003).
Where two headings read alike, the source gives them in different places.

Legend:
[1] = target: T1, human α2b-AR (Homo sapiens, UniProt P18089); assay: [3H]Rauwolscine equilibrium competition binding, human α2b-AR expressed in CHO cells
T1 construct: expressed in transfected cells
T1 sequence (P18089 1-450): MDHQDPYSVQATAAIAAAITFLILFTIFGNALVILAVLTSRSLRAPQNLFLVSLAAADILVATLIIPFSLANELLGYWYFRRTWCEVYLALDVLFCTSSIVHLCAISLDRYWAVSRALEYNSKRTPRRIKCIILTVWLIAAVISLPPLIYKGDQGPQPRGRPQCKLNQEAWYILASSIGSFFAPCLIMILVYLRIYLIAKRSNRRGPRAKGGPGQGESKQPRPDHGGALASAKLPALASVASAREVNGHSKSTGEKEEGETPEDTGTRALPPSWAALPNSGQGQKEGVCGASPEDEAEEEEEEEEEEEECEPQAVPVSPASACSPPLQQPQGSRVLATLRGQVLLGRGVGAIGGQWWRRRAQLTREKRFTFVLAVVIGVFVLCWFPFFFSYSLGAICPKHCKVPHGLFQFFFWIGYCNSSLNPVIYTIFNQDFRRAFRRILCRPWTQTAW

[2] = target: T2, human α2a-AR (Homo sapiens, UniProt P08913); assay: [3H]Rauwolscine equilibrium competition binding, human α2a-AR expressed in CHO cells; settings: for α2a/α2b Selectivity = Ki(α2b)/Ki(α2a): Table 1, ratio of Ki values; for Ki: human α2a-AR in CHO cells
T2 construct: expressed in transfected cells
T2 sequence (P08913 1-465): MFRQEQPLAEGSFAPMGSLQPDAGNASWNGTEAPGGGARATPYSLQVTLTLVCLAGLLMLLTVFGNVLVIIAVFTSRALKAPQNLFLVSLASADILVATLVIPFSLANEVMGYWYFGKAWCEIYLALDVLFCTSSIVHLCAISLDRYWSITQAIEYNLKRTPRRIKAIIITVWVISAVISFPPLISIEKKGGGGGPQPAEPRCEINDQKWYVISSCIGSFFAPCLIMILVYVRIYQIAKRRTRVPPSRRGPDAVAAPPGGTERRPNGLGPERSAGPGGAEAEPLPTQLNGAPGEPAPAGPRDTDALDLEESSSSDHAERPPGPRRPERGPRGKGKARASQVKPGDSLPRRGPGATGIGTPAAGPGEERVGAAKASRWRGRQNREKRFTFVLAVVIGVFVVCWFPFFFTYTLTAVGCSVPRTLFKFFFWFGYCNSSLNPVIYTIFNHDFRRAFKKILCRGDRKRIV

[3] = target: T3, human α2c-AR (Homo sapiens, UniProt P18825); assay: [3H]Rauwolscine equilibrium competition binding, human α2c-AR expressed in CHO cells
T3 construct: expressed in transfected cells
T3 sequence (P18825 1-462): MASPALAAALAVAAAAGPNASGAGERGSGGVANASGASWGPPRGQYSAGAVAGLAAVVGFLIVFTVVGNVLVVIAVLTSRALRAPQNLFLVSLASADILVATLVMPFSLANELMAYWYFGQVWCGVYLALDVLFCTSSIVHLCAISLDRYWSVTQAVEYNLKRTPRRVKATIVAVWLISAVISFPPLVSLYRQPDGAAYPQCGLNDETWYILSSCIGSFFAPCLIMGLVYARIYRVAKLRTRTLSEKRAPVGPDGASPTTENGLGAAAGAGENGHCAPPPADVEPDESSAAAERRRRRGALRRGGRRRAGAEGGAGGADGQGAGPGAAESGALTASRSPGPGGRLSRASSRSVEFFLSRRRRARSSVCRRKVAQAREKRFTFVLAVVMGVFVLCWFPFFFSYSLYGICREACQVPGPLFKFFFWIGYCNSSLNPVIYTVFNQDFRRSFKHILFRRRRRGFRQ

[4] = tested on: cremaster muscle arterioles (A3-A4 resistance vessels); assay: Intravital microscopy of mouse cremaster muscle arterioles; assay type: in vivo, male C57-BL mice; settings: 37° C., systemic administration via femoral vein, n=6
Description: Male C57-BL mice age 7-8 weeks and weighing approximately 20 g were used for the study. Prior to surgery animals were anesthetized with an i.m. injection of […] of Ketaset (87 mg ketamine/mL+13 mg xylazine/mL). Body temperature was maintained at ˜37° C. by convective heating. The animal was supinated and a midline incision was made in the ventro-cervical region and the underlying tissues bisected laterally to expose the trachea. A tracheotomy was performed and the animal intubated directly with PE50 tubing to facilitate ventilation, and the wound closed. The left rear limb was incised to expose the femoral neurovascular bundle, and the femoral vein isolated and catheterized with PE10 tubing attached to a syringe of normal saline. […]. […]
All experiments were carried out using an industrial grade microscope (Nikon MM-11) with two light sources, bright field (Opti-Quip 75 W xenon) and fluorescent (Nikon 150 W mercury). […] Experiments are viewed on a video monitor and recorded on digital tapes for off-line processing. The video images are analyzed off-line using the MetaMorph software (Universal Imaging Co.) on a Dell Optiplex GX-1. […]
The prepared animal was placed on the stage of the microscope on either the surgery board with the translumination window or on a stereotaxic frame. […] The blood pressure was monitored with a Kent Scientific XBP-1000 unit.

[5] = [3H]rauwolscine 2.54 nM, mean ± SEM of four to nine experiments, read-out: Ki = SEM (nM) α2b-AR
[6] = [3H]rauwolscine 2.54 nM, mean ± SEM of four to nine experiments, read-out: Ki = SEM (nM) α2a-AR
[7] = Table 2, mean ± SEM of n = 4-6, read-out: pKi α2b-AR (converted)
[8] = Table 2, mean ± SEM of n = 4-6, read-out: pKi α2a-AR (converted)

Row | Compound | Ki [1, 5] | α2a/α2b Selectivity = Ki(α2b)/Ki(α2a) [2] | Ki [2, 6] | Ki [3] | Ki [1, 7] | Ki [2, 8] | binding affinity for α2c-AR greater than on the α1-AR subtypes ([3]; from Table 3) | increase in vessel diameter [4]
1 | O=C(NCCCCNC(=O)[C@@H]1[C@H]2C[C@H]3c4[nH]c5ccccc5c4CCN3C[C@@H]2CC[C@@H]1O)[C@@H]1[C@H]2C[C@H]3c4[nH]c5ccccc5c4CCN3C[C@@H]2CC[C@@H]1O [Compound 3c] | 189 ± 38.1 nM | – | 15.3 ± 6.2 nM | 8.32 nM | 398 nM | 53.7 nM | – | –
2 | O=C(NCCNC(=O)[C@@H]1[C@H]2C[C@H]3c4[nH]c5ccccc5c4CCN3C[C@@H]2CC[C@@H]1O)[C@@H]1[C@H]2C[C@H]3c4[nH]c5ccccc5c4CCN3C[C@@H]2CC[C@@H]1O [Compound 3a] | 1510 ± 262 nM | – | 26.4 ± 7.3 nM | 3.55 nM | 3160 nM | 93.3 nM | – | –
3 | O=C(NCCCCCNC(=O)[C@@H]1[C@H]2C[C@H]3c4[nH]c5ccccc5c4CCN3C[C@@H]2CC[C@@H]1O)[C@@H]1[C@H]2C[C@H]3c4[nH]c5ccccc5c4CCN3C[C@@H]2CC[C@@H]1O [Compound 3d] | – | – | 1.73 ± 0.26 nM | 10.7 nM | – | 6.17 nM | – | –

More lines, main results first:

Row | Ki [1, 5] | α2a/α2b Selectivity = Ki(α2b)/Ki(α2a) [2] | Ki [2, 6] | Ki [3] | Ki [1, 7] | Ki [2, 8] | binding affinity for α2c-AR greater than on the α1-AR subtypes ([3]; from Table 3) | Compound | increase in vessel diameter [4]
4 | 18.6 ± 1.6 nM | 47.7 | 0.39 ± 0.08 nM | – | – | – | – | O=C(NCCCCCCCCCCNC(=O)[C@@H]1[C@H]2C[C@H]3c4[nH]c5ccccc5c4CCN3C[C@@H]2CC[C@@H]1O)[C@@H]1[C@H]2C[C@H]3c4[nH]c5ccccc5c4CCN3C[C@@H]2CC[C@@H]1O [Compound 3i] | –
5 | – | – | 0.87 ± 0.18 nM | 3.39 nM | – | 3.09 nM | – | O=C(NCCCCCCCNC(=O)[C@@H]1[C@H]2C[C@H]3c4[nH]c5ccccc5c4CCN3C[C@@H]2CC[C@@H]1O)[C@@H]1[C@H]2C[C@H]3c4[nH]c5ccccc5c4CCN3C[C@@H]2CC[C@@H]1O [Compound 3f] | –
6 | 46 ± 7.6 nM | 60.5 | 0.76 ± 0.12 nM | – | – | – | – | O=C(NCCCCCCCCNC(=O)[C@@H]1[C@H]2C[C@H]3c4[nH]c5ccccc5c4CCN3C[C@@H]2CC[C@@H]1O)[C@@H]1[C@H]2C[C@H]3c4[nH]c5ccccc5c4CCN3C[C@@H]2CC[C@@H]1O [Compound 3g] | –
7 | – | – | – | – | – | – | at least 4400 fold | COC(=O)[C@@H]1[C@H]2C[C@H]3c4[nH]c5ccccc5c4CCN3C[C@@H]2CC[C@@H]1O [Yohimbine, reference compound] | 22.14±1.08%
8 | 166 ± 56.7 nM | – | 1.35 ± 0.27 nM | 6.92 nM | 288 nM | 4.47 nM | – | O=C(NCCCCCCNC(=O)[C@@H]1[C@H]2C[C@H]3c4[nH]c5ccccc5c4CCN3C[C@@H]2CC[C@@H]1O)[C@@H]1[C@H]2C[C@H]3c4[nH]c5ccccc5c4CCN3C[C@@H]2CC[C@@H]1O [Compound 3e] | –
